In patent publication US20120245135A1, “Gallium Complexes, Pharmaceutical Compositions And Methods Of Use” (Genta Incorporated, priority 2011, published 2012):

Assay: Oral bioavailability of gallium complexes in dogs (plasma gallium by ICP-MS)
Conditions: for blood levels of gallium reached (peak blood concentration of gallium) / maximum blood concentration of gallium achieved: 2.5 mg/kg; for blood levels of gallium reached by oral controls: oral positive control (all three dogs) and oral negative control (highest value, one animal), Beagle dogs
Protocol: Pharmacokinetics, oral bioavailability and bioequivalency of gallium-ligand complexes according to the invention were determined in dogs following a single oral gavage administration of the compounds as a suspension/solution in water in fasted male Beagle dogs at 2.5 mg/kg dog body weight or following administration of a single total dose of 30 mg in a capsule formulation (for histidine and carnosine only). The following complexes were selected for testing: gallium picolinate, gallium kojate, gallium (+)-mandalate, gallium (−)-mandalate, gallium tryptophanate, gallium acetyl piperidinate, gallium prolinate both neutral and ionic; and the capsules prepared from histidine and carnosine. Each compound was studied in groups of three fasted animals. Nine serial blood samples were collected from each animal by venipuncture of a jugular vein at the following time points post-dose: 0 (predose), 0.25, 0.5, 0.75, 1, 2, 4, 8, and 16 hours post-dose. Blood samples were collected into chilled tubes containing heparin as the anticoagulant.
Oral bioavailability of the test gallium complex was evaluated in each of the three animals in each test group.

[1] = single oral gavage, suspension/solution in water, fasted male Beagle dogs

SMILES: O=C1[O][Ga-3]23([O]C(=O)[C@H](c4ccccc4)[OH+]2)([O]C(=O)[C@H](c2ccccc2)[OH+]3)[OH+]C1c1ccccc1 (stereo partly drawn) [gallium (+)-mandalate]
- blood levels of gallium reached (peak blood concentration of gallium) (male, Beagle, dog, in vivo, po): at least 1,000 ng/ml

SMILES: O=C1[O][Ga-3]23([O]C(=O)[C@@H](c4ccccc4)[OH+]2)([O]C(=O)[C@@H](c2ccccc2)[OH+]3)[OH+]C1c1ccccc1 (stereo partly drawn) [gallium (−)-mandalate]
- blood levels of gallium reached (peak blood concentration of gallium) (male, Beagle, dog, in vivo, po): at least 1,000 ng/ml

SMILES: CC1=[O+][Ga-3]23([O]C(=O)C4CCCCN14)([O]C(=O)C1CCCCN1C(C)=[O+]2)[O]C(=O)C1CCCCN1C(C)=[O+]3 (stereo not drawn) [gallium acetyl piperidinate complex]
- maximum blood concentration of gallium achieved (male, Beagle, dog, in vivo, po): about 200 ng/ml

SMILES: OCC1=CC2=[O+][Ga-3]34([O]C2=CO1)([O]C1=COC(CO)=CC1=[O+]3)[O]C1=COC(CO)=CC1=[O+]4 [gallium kojate]
- blood levels of gallium reached (peak blood concentration of gallium) (male, Beagle, dog, in vivo, po): at least 1,000 ng/ml

SMILES: Cc1occc(=O)c1[O-].Cc1occc(=O)c1[O-].Cc1occc(=O)c1[O-].[Ga+3] [gallium maltolate, reference compound]
- blood levels of gallium reached by oral controls: ≥ 1,000 ng/ml

SMILES: O=[N+]([O-])[O-].O=[N+]([O-])[O-].O=[N+]([O-])[O-].[Ga+3] [gallium nitrate, reference compound]
- blood levels of gallium reached by oral controls: ≤ 700 ng/mL

SMILES: O=C1[O][Ga-3]23([O]C(=O)c4cccc[n+]42)([O]C(=O)c2cccc[n+]23)[n+]2ccccc21 [gallium picolinate]
- blood levels of gallium reached (peak blood concentration of gallium) (male, Beagle, dog, in vivo, po): at least 1,000 ng/ml

SMILES: O=C([O-])C1CCCN1.O=C([O-])C1CCCN1.O=C([O-])C1CCCN1.[Ga+3] (stereo not drawn) [gallium prolinate neutral complex]
- maximum blood concentration of gallium achieved [1]: about 300 ng/ml

SMILES: N[C@@H](Cc1c[nH]c2ccccc12)C(=O)[O-].N[C@@H](Cc1c[nH]c2ccccc12)C(=O)[O-].N[C@@H](Cc1c[nH]c2ccccc12)C(=O)[O-].[Ga+3] [gallium tryptophanate complex]
- maximum blood concentration of gallium achieved [1]: about 500 ng/ml
